Results: patent publication US12060333B2 (Hoffmann-La Roche Inc., priority 2021, dated 2024)
Like-named read-outs stand apart in the source and are kept apart here.

Target: SARS-CoV-2 3CLpro (Severe acute respiratory syndrome coronavirus 2, UniProt P0DTD1)
Assay: biochemical
[1] = IC50 (μM), SARS-CoV-2 3CLPro assay
[2] = read-out: IC50 (μM), SARS-CoV-2 3CLPro assay

Compound | IC50 [1] | IC50 [2]
CC(C)C[C@H](NC(=O)c1cc2ccccc2[nH]1)C(=O)NN(CC1CCNC1=O)C(=O)CF (stereo partly drawn) [Example 38, N-[(1S)-1-[[(2-fluoroacetyl)-[(2-oxo-pyrrolidin-3-yl)methyl]amino]carbamoyl]-3-methyl-butyl]-1H-indole-2-carboxamide] | 0.29 µM | –
CN(C(=O)c1cc2ccccc2[nH]1)[C@@H](CC1CCCCC1)C(=O)NN(CCC(N)=O)C(=O)CCl [Example 39, N-[(1S)-2-[2-(3-Amino-3-axo-propyl)-2-(2-chloroacetyl)hydrazino]-1-(cyclohexylmethyl)-2-axo-ethyl]-N-methyl-1H-indole-2-carboxamide] | – | 0.002 µM
NC(=O)CCN(NC(=O)[C@H](CC12CC(C1)C2)NC(=O)c1nc2ccccc2[nH]1)C(=O)C(F)Cl (mixture of isomers) [Example 67, N-[rac-(1S)-2-[2-(3-amino-3-oxo-propyl)-2-(2-chloro-2-fluoro-acetyl)hydrazino]-1-(1-bicyclo[1.1.1]pentanylmethyl)-2-axo-ethyl]-1H-benzimidazole-2-carboxamide] | 0.023 µM | –
CC(C)C[C@H](NC(=O)c1cc2ccccc2[nH]1)C(=O)NN(C[C@H]1CCNC1=O)C(=O)CF (single isomer, unassigned) [Example 38-B] | 3.16 µM | –
CCCN(NC(=O)[C@H](CC(C)C)NC(=O)OCc1ccccc1)C(=O)CCl [Example 21, Benzyl N-[(1S)-1-[[(2-chloroacetyl)-propyl-amino]carbamoyl]-3-methyl-butyl]carbamate] | – | 0.39 µM
CC(C)C[C@H](NC(=O)c1cc2cc(F)ccc2[nH]1)C(=O)NN(CCC(N)=O)C(=O)[C@@H](F)Cl (racemic) [Example 57-A, 5-fluoro-N-[rac-(1S)-1-[[(3-amino-3-oxo-propyl)-[rac-(2S)-2-chloro-2-fluoro-acetyl]amino]carbamoyl]-3-methyl-butyl]-1H-indole-2-carboxamide] | 0.067 µM | –
CC(C)C[C@H](NC(=O)c1cc2cc(F)ccc2[nH]1)C(=O)NN(CCC(N)=O)C(=O)[C@H](F)Cl (racemic) [Example 57-B, 5-fluoro-N-[rac-(1S)-1-[[(3-amino-3-oxo-propyl)-[rac-(2R)-2-chloro-2-fluoro-acetyl]amino]carbamoyl]-3-methyl-butyl]-1H-indole-2-carboxamide] | 0.01 µM | –
CC(C)C[C@H](NC(=O)OC(C)(C)C)C(=O)NN(CCC(N)=O)C(=O)CCl [Example 26, tert-Butyl N-[(1S)-1-[[(3-amino-3-oxo-propyl)-(2-chloroacetyl)amino]carbamoyl]-3-methyl-butyl]carbamate] | – | 0.67 µM
Cc1cc(C(=O)N[C@@H](CC2CCCCC2)C(=O)NN(CCC(N)=O)C(=O)C(F)Cl)no1 (mixture of isomers) [Example 74, 5-Methyl-N-[rac-(1S)-2-[2-(3-amino-3-oxo-propyl)-2-(2-chloro-2-fluoro-acetyl)hydrazino]-1-(cyclohexylmethyl)-2-axo-ethyl]isoxazole-3-carboxamide] | 0.028 µM | –
NC(=O)CCN(NC(=O)[C@H](CC1CCCCC1)NC(=O)c1cn2ccccc2n1)C(=O)C(F)Cl (mixture of isomers) [Example 82, N-[rac-(1S)-2-[2-(3-amino-3-oxo-propyl)-2-(2-chloro-2-fluoro-acetyl)hydrazino]-1-(cyclohexylmethyl)-2-axo-ethyl]imidazo[1,2-a]pyridine-2-carboxamide] | 0.043 µM | –
NC(=O)CCN(NC(=O)[C@H](CC1CCCCC1)NC(=O)OCc1ccccc1)C(=O)CF [Example 15, Benzyl N-[(1S)-2-[2-(3-amino-3-oxo-propyl)-2-(2-fluoroacetyl)hydrazino]-1-(cyclohexylmethyl)-2-axo-ethyl]carbamate] | – | 1.2 µM
CC(C)C[C@H](NC(=O)c1cc2ccccn2n1)C(=O)NN(CCC(N)=O)C(=O)C(F)Cl (mixture of isomers) [Example 90, N,N-[rac-(1S)-1-[[(3-amino-3-oxo-propyl)-(2-chloro-2-fluoro-acetyl)amino]carbamoyl]-3-methyl-butyl]pyrazolo[1,5-a]pyridine-2-carboxamide] | – | 0.073 µM
CC(C)C[C@H](NC(=O)OCc1ccccc1)C(=O)NN(Cc1c[nH]cn1)C(=O)CCl [Example 24, Benzyl N-[(1S)-1-[[(2-chloroacetyl)-(1H-imidazol-4-ylmethyl)amino]carbamoyl]-3-methyl-butyl]carbamate] | – | 0.087 µM
CC(C)C[C@H](NC(=O)OCc1ccccc1)C(=O)NN(CC1CCCNC1=O)C(=O)CCl (stereo partly drawn) [Example 20, Benzyl N-[(1S)-1-[[(2-chloroacetyl)-[(2-oxo-3-piperidyl)methyl]amino]carbamoyl]-3-methyl-butyl]carbamate] | 0.0046 µM | –
CC(C)C[C@H](NC(=O)c1nc2ccccc2[nH]1)C(=O)NN(CCC(N)=O)C(=O)[C@@H](F)Cl (single isomer, unassigned) [Example 63-A] | 0.043 µM | –
Cc1cc(C(=O)NC(CC(C)C)C(=O)NN(CCC(N)=O)C(=O)C(F)Cl)no1 (racemic) [Example 97, 5-Methyl-N-[rac-(1S)-1-[[(3-amino-3-oxo-propyl)-(2-chloro-2-fluoro-acetyl)amino]carbamoyl]-3-methyl-butyl]isoxazole-3-carboxamide] | 0.91 µM | –

Compound | IC50 [1] | IC50 [2]
CC(C)C[C@H](NC(=O)/C=C/c1ccc(Cl)cc1F)C(=O)NN(CCC(N)=O)C(=O)CCl [Example 34, 3-[(2-Chloroacetyl)-[[(2S)-2-[[(E)-3-(4-chloro-2-fluoro-phenyl)prop-2-enoyl]amino]-4-methyl-pentanoyl]amino]amino]propanamide] | – | 0.005 µM
NC(=O)CCN(NC(=O)[C@H](CC1CCCCC1)NC(=O)c1cc2ccccc2[nH]1)C(=O)CCl [Example 35, N-[(1S)-2-[2-(3-Amino-3-axo-propyl)-2-(2-chloroacetyl)hydrazino]-1-(cyclohexylmethyl)-2-axo-ethyl]-1H-indole-2-carboxamide] | – | 0.002 µM
CC1(C[C@H](NC(=O)c2cc(C(F)(F)F)on2)C(=O)NN(C[C@@H]2CCNC2=O)C(=O)[C@H](F)Cl)CC1 [Example 98, N—((S)-1-(2-((R)-2-Chloro-2-fluoroacetyl)-2-(((S)-2-axopyrrolidin-3-yl)methyl)hydrazineyl)-3-(1-methylcyclopropyl)-1-oxopropan-2-yl)-5-(trifluoromethyl)isoxazole-3-carboxamide] | – | 0.017 µM
NC(=O)CCN(NC(=O)[C@H](CC1CCCCC1)NC(=O)c1cc2ccccc2[nH]1)C(=O)[C@@H](F)Cl [Example 59-A, N-[(1S)-2-[2-(3-amino-3-oxo-propyl)-2-[(2S)-2-chloro-2-fluoro-acetyl]hydrazino]-1-(cyclohexylmethyl)-2-axo-ethyl]-1H-indole-2-carboxamide] | – | 0.023 µM
CC(C)C[C@H](NC(=O)OCc1ccccc1)C(=O)NN(CCC(N)=O)C(=O)C(Cl)c1ccccc1 (stereo partly drawn) [Example 3, Benzyl N-[(1S)-1-[[(3-amino-3-oxo-propyl)-(2-chloro-2-phenyl-acetyl)amino]carbamoyl]-3-methyl-butyl]carbamat] | – | 0.89 µM
COc1cccc(NCC(=O)N[C@@H](CC(C)C)C(=O)NN(CCC(N)=O)C(=O)[C@H](F)Cl)c1 (single isomer, unassigned) [Example 83-A] | 0.9 µM | –
NC(=O)CCN(NC(=O)[C@H](CC1CCCCC1)NC(=O)c1cc2ccccc2[nH]1)C(=O)[C@H](F)Cl [Example 59-B, N-[(1S)-2-[2-(3-amino-3-oxo-propyl)-2-[(2R)-2-chloro-2-fluoro-acetyl]hydrazino]-1-(cyclohexylmethyl)-2-axo-ethyl]-1H-indole-2-carboxamide] | – | 0.005 µM
NC(=O)CCN(NC(=O)[C@H](CC1CCCCC1)NC(=O)/C=C/c1ccc(Cl)cc1F)C(=O)CCl [Example 33, 3-[(2-Chloroacetyl)-[[(2S)-2-[[(E)-3-(4-chloro-2-fluoro-phenyl)prop-2-enoyl]amino]-3-cyclohexyl-propanoyl]amino]amino]propanamide] | – | 0.002 µM
CC(C)C[C@H](NC(=O)/C=C/c1ccccc1)C(=O)NN(CCC(N)=O)C(=O)[C@H](F)Cl (single isomer, unassigned) [Example 86-A] | 0.75 µM | –
CC(C)C[C@H](NC(=O)OCc1ccccc1)C(=O)NN(CCC(N)=O)C(=O)C(C)Cl (stereo partly drawn) [Example 4, Benzyl N-[(1S)-1-[[(3-amino-3-oxo-propyl)-(2-chloropropanoyl)amino]carbamoyl]-3-methyl-butyl]carbamate] | – | 0.33 µM
COc1cccc2[nH]c(C(=O)N[C@@H](CC(C)C)C(=O)NN(CCC(N)=O)C(=O)CCl)cc12 [Example 27, 4-Methoxy-N-[(1S)-1-[[(3-amino-3-oxo-propyl)-(2-chloroacetyl)amino]carbamoyl]-3-methyl-butyl]-1H-indole-2-carboxamide] | 0.006 µM | –
CC(C)C[C@H](NC(=O)c1ncc[nH]1)C(=O)NN(CCC(N)=O)C(=O)C(F)Cl (mixture of isomers) [Example 96, N-[rac-(1S)-1-[[(3-amino-3-oxo-propyl)-(2-chloro-2-fluoro-acetyl)amino]carbamoyl]-3-methyl-butyl]-1H-imidazole-2-carboxamide] | 0.66 µM | –
NC(=O)CCN(NC(=O)[C@H](CC1CCC1)NC(=O)c1cnccn1)C(=O)C(F)Cl (mixture of isomers) [Example 79, N-[rac-(1S)-2-[2-(3-amino-3-oxo-propyl)-2-(2-chloro-2-fluoro-acetyl)hydrazino]-1-(cyclobutylmethyl)-2-axo-ethyl]pyrazine-2-carboxamide] | 0.15 µM | –
CC(C)C[C@H](NC(=O)OCc1ccccc1)C(=O)NN(CCC(N)=O)C(=O)[C@@H](F)Cl (single isomer, unassigned) [Example 17-A] | 1.63 µM | –
NC(=O)CCN(NC(=O)[C@H](CC1CCC1)NC(=O)c1nc2ccccc2[nH]1)C(=O)C(F)Cl (mixture of isomers) [Example 66, N-[rac-(1S)-2-[2-(3-amino-3-oxo-propyl)-2-(2-chloro-2-fluoro-acetyl)hydrazino]-1-(cyclobutylmethyl)-2-axo-ethyl]-1H-benzimidazole-2-carboxamide] | 0.034 µM | –
CC(C)C[C@H](NC(=O)OCc1ccccc1)C(=O)NN(CCC(N)=O)C(=O)CBr [Example 7, Benzyl N-[(1S)-1-[[(3-amino-3-oxo-propyl)-(2-bromoacetyl)amino]carbamoyl]-3-methyl-butyl]carbamate] | – | 0.54 µM
